Data on 15 compounds can be found in patent US9409864B2, “Sulfonamide TRPA1 receptor antagonists” (ARIO PHARMA LIMITED, priority 2013, dated 2016).

In test [1] the test system is PF-4840154-induced mechanical hyperalgesia in rats. The experiment in a line: Agonist (PF-4840154)-induced mechanical hyperalgesia in rats. Format: in vivo. The note with it: Rattus norvegicus, 30 μmol/kg oral, PF-4840154 0.05 nmol/50 μl/paw intraplantar. The text has this: Agonist (PF-4840154)-Induced Mechanical Hyperalgesia in Rats
The method is used to investigate the anti-hyperalgesic effects of the compounds listed in the present invention following agonist (PF-4840154)-induced hyperalgesic responses. The activity is indicative of TRPA1 receptor occupancy following oral dosing. Specifically, male SD rats (Charles River, Italy) weighing 70-100 g. were used. The anti-hyperalgesic effects were investigated using the electronic dynamometer test. PF-4840154 (Sigma, USA) was used to induce mechanical hyperalgesia. Local, intraplantar injection of PF-4840154 at 0.05 nmol/50 μl/paw caused the reduction of the hind paw withdrawal response induced by mechanical stimuli. Mechanical stimulation was induced in basal condition and 30, 60, 120, 180 and 240 minutes after the oral administration of the antagonists dissolved in 2.5% DMSO and 30% Solutol. Compounds were orally administered (30 μmol/kg/10 ml) to rats 1 hour before the injection of PF-4840154 into the plantar surface of a rat's hind using a micro syringe.

The target in test [2] is T1, native human TRPA1 receptors (Homo sapiens, UniProt O75762).
T1 construct: stably expressing native human TRPA1 receptors were used; endogenous in cells; host or cells: A549 human lung adenocarcinoma epithelial cell line
The experiment in a line: PF-4840154 (1 μM)-induced Ca2+ fluorescence measurements in A549 cell line. The class given is cell-based. As to conditions: for inhibition at 10 µM: 10 μM compound against 1 μM PF-4840154, A549 cells. As for the experimental part:
PF-4840154 (1 μM)-Induced Ca^2+ Fluorescence Measurements in A549 Cell Line
Human lung adenocarcinoma epithelial cell line (A549) stably expressing native human TRPA1 receptors were used. The cells were cultured in medium consisting of Eagle's minimal essential medium (EMEM) supplemented with 10% fetal bovine serum (FBS), penicillin (100 IU/ml), streptomycin ([…]), L-glutamine (2 mM), sodium bicarbonate (2.5 g/L) and HEPES (24 mM). Cells were kept at 37° C. in 5% CO2/humidified air. For the experiments the cells were seeded at a density of 16,000 cells/well into 96-well black, clear-bottom plates. After 24 hours incubation the cells were loaded with medium supplemented with 2.5 mM probenecid, 3 μM of the calcium sensitive fluorescent dye Fluo-4 AM and 0.01% pluronic acid, for 30 min at 37° C. Afterwards the loading solution was aspirated and 100 μl/well of assay buffer: Hank's Balanced Salt Solution (HBSS) supplemented with 2.5 mM probenecid and 500 μM Brilliant Black (Aldrich) was added. Stock solutions (100 mM) of ligands were made in Dimethyl Sulfoxide (DMSO) and stored at −20° C. Serial dilutions of ligands for experimental use were made in HBSS buffer. After placing both plates (cell culture and compound plate) into the FlexStation II (Molecular Device, Union City, Calif. 94587, US), fluorescence changes were measured. On-line additions were carried out in a volume of […]. To facilitate drug diffusion into the wells in antagonist type experiments, the studies were performed at 36.5° C. and three cycles of mixing (25 μl from each well moved up and down 3 times) were performed immediately after antagonist injection to the wells. All exemplified compounds were tested alone (to address residual agonistic activity) and against 1 μM of PF-4840154 to address inhibitory activity at the initial concentration of 10 μM. For selected examples the entire inhibitory concentration-response curves were constructed and the IC50 value calculated.
PF-4840154 (1 μM) increased [Ca^2+] in the vast majority (95%) of cultured cells which were thereby identified as TRPA1 expressing cells.

In test [3] the test system is oxaliplatin-induced mechanical hyperalgesia in rats. Kind of test: Oxaliplatin-induced mechanical hyperalgesia in rats. Format: in vivo. The note with it: Rattus norvegicus, 168 h, 30 μmol/kg oral, 7 days post i.v. oxaliplatin 2.5 mg/kg. As for the experimental part:
Oxaliplatin-Induced Mechanical Hyperalgesia in Rats
The method described by Nassini et al. (Pain, 2011, 152(7), 1621-31) was used with minor modifications. Restrained rats were treated with a single intravenous bolus injection of oxaliplatin (2.5 mg/kg) dissolved in normal saline. This approach was sufficient to elicit reproducible allodynic behaviour evident 3 days post injection and during the day thereafter. For convenience all acute experiments were conducted 7 days post injection when compounds were orally administered at 30 μmol/kg.

Setting [4] is: read-out: % of reversal of mechanical allodynia.
The mark [5] stands for this setting: read-out: Maximal inhibition (%).
Setting [6] is: against PF-4840154 (1 μM)-evoked [Ca2+]i mobilization, A549 cells.

Where two headings read alike, the source gives them in different places.

T1 sequence (O75762 whole entry): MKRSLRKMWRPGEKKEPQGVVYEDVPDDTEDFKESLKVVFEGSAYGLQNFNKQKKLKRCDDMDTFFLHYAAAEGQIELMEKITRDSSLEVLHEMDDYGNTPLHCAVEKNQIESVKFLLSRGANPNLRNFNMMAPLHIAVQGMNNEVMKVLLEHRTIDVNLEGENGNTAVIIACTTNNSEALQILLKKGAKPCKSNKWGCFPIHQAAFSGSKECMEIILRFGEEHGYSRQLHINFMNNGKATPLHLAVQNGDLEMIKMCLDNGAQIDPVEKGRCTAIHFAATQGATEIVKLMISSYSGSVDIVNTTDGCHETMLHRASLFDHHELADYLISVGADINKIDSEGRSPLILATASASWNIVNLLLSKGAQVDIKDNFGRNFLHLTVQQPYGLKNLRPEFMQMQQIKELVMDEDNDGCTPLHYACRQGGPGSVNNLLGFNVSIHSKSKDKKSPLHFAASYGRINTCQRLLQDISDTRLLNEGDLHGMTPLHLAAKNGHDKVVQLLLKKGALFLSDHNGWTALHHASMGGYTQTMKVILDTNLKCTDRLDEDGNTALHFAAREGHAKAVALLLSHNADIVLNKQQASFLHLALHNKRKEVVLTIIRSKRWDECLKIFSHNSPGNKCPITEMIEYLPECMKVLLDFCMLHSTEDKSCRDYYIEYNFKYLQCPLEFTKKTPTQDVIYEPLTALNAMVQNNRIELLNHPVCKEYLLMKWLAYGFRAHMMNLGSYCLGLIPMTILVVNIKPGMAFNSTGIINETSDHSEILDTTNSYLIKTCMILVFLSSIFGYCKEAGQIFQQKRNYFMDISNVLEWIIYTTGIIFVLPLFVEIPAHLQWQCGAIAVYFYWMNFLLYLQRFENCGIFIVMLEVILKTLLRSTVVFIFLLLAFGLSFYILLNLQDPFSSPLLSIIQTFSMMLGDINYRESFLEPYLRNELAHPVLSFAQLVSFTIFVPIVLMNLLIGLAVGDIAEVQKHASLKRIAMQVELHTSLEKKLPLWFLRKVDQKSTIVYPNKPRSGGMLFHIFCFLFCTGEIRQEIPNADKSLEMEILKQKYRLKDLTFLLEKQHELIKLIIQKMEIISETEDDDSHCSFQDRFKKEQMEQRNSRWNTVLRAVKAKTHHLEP

For `C=C(C(=O)NCc1ccnc(-c2ccc(OC(F)(F)F)cc2)c1)N(C)S(=O)(=O)c1ccc(Cl)cc1` [Example 4, 2-[(4-chlorophenyl)sulfonyl-methyl-amino]-N-[[2-[4-(trifluoromethoxy)phenyl]-4-pyridyl]methyl]prop-2-enamide], the inhibition in vivo at 30 µmol/kg in test [1] (setting [4]) and in test [1] (setting [5]) was 67% throughout. Moreover, the inhibition (as a rule, the percentage by which the read-out fell short of the control) at 10 µM in test [2] worked out at 98%. In test [2] (setting [6]), the IC50 – broadly, the midpoint of a concentration-inhibition curve – amounted to 0.078 µM.
On to `C=C(C(=O)NCc1ccnc(-c2ccc(OC(F)(F)F)cc2)c1)N(CC)S(=O)(=O)c1ccc(Cl)cc1` [Example 5, 2-[(4-chlorophenyl)sulfonyl-ethyl-amino]-N-[[2-[4-(trifluoromethoxy)phenyl]-4-pyridyl]methyl]prop-2-enamide], for which the inhibition in vivo at 30 µmol/kg in test [1] (setting [4]) and in test [1] (setting [5]) was 76% in each case. This compound also had an inhibition at 10 µM in test [2] of 99%. Moreover, half-maximal inhibition in test [2] (setting [6]) (IC50) required 0.1 µM.
As to `CCN(C1(C(=O)NCc2ccnc(-c3ccc(OC(F)(F)F)cc3)c2)CC1)S(=O)(=O)c1ccc(F)cc1` [Example 26, 1-[ethyl-(4-fluorophenyl)sulfonyl-amino]-N-[[2-[4-(trifluoromethoxy)phenyl]-4-pyridyl]methyl]cyclopropanecarboxamide], the inhibition in vivo at 30 µmol/kg in test [1] (setting [4]) and in test [1] (setting [5]) was 64% in each case. In test [2], this compound came in with an inhibition at 10 µM of 100%. In test [2] (setting [6]), this compound yielded an IC50 of 0.151 µM.
For the compound `CCN(C1(C(=O)NCc2cccc(-c3ccc(C(F)(F)F)cc3)c2)CC1)S(=O)(=O)c1ccc(Cl)cc1` [Example 30, 1-[(4-chlorophenyl)sulfonyl-ethyl-amino]-N-[[3-[4-(trifluoromethyl)phenyl]phenyl]methyl]cyclopropanecarboxamide], the inhibition in vivo at 30 µmol/kg in test [1] (setting [4]) and in test [1] (setting [5]) was 82% in each case. For the same compound, in test [2], the inhibition at 10 µM was determined as 100%. Besides, in test [2] (setting [6]), the IC50 amounted to 0.1 µM.
For the compound `CCN(C1(C(=O)NCc2cc(-c3ccc(C(F)(F)F)cc3)nc(N3CCCC3)c2)CC1)S(=O)(=O)c1ccc(Cl)s1` [Example 34, 1-[(5-chloro-2-thienyl)sulfonyl-ethyl-amino]-N-[[2-pyrrolidin-1-yl-6-[4-(trifluoromethyl)phenyl]-4-pyridyl]methyl]cyclopropanecarboxamide], the inhibition in vivo at 30 µmol/kg in test [3] (setting [4]) and in test [3] (setting [5]) was 71% each time. The compound also displayed an inhibition at 10 µM in test [2] of 100%. The same compound came in with a half-inhibitory concentration (IC50) in test [2] (setting [6]) of 0.025 µM.
Turning to `C=C(C(=O)NCc1cc(-c2ccc(C(F)(F)F)cc2)nc(N(C)C)c1)N(CC)S(=O)(=O)c1ccc(F)cc1` [Example 37, N-[[2-dimethylamino-6-[4-(trifluoromethyl)phenyl]-4-pyridyl]methyl]-2-[ethyl-(4-fluorophenyl)sulfonyl-amino]prop-2-enamide], the inhibition in vivo at 30 µmol/kg in test [1] (setting [4]) was determined as 95%; in test [1] (setting [5]) it was 95%; in test [3] (setting [4]), 82%; in test [3] (setting [5]), 82%. The compound further returned an inhibition at 10 µM in test [2] of 100%. Also, half-maximal inhibition in test [2] (setting [6]) (IC50) was put at 0.018 µM.
Consider `C=C(C(=O)NCc1cc(OC)nc(-c2ccc(C(F)(F)F)cc2)c1)N(CC)S(=O)(=O)c1ccc(F)cc1` [Example 40, 2-[ethyl-(4-fluorophenyl)sulfonyl-amino]-N-[[2-methoxy-6-[4-(trifluoromethyl)phenyl]-4-pyridyl]methyl]prop-2-enamide], for which the inhibition in vivo at 30 µmol/kg in test [3] (setting [4]) and in test [3] (setting [5]) was 103% in each case. In addition, in test [2], at 10 µM the inhibition was 100%. This compound registered an IC50 in test [2] (setting [6]) of 0.016 µM.
Consider `CCN(C1(C(=O)NCc2cc(-c3ccc(OC(F)(F)F)cc3)nc(N3CCCC3)c2)CC1)S(=O)(=O)c1ccc(F)cc1` [Example 61, 1-[ethyl-(4-fluorophenyl)sulfonyl-amino]-N-[[2-pyrrolidin-1-yl-6-[4-(trifluoromethoxy)phenyl]-4-pyridyl]methyl]cyclopropanecarboxamide], for which at 10 µM the inhibition in test [2] was 95%. The same compound registered an IC50 in test [2] (setting [6]) of 0.784 µM.
The corresponding values for `CCN(C1(C(=O)NCc2cc(-c3ccc(C(F)(F)F)cc3)nc(N3CCOCC3)c2)CC1)S(=O)(=O)c1ccc(F)cc1` [Example 62, 1-[ethyl-(4-fluorophenyl)sulfonyl-amino]-N-[[2-morpholino-6-[4-(trifluoromethyl)phenyl]-4-pyridyl]methyl] cyclopropanecarboxamide] are 100% and 0.66 µM.
Regarding `C=C(C(=O)NCc1cc(-c2ccc(OC(F)(F)F)cc2)nc(N2CCN(CC3CC3)CC2)c1)N(CC)S(=O)(=O)c1ccc(F)cc1` [Example 63, N-[[2-[4-(cyclopropylmethyl)piperazin-1-yl]-6-[4-(trifluoromethoxy)phenyl]-4-pyridyl]methyl]-2-[ethyl-(4-fluorophenyl)sulfonyl-amino]prop-2-enamide], the inhibition at 10 µM in test [2] is 99%. Also, the IC50 in test [2] (setting [6]) came to 0.175 µM.
Compound `CCN(C1(C(=O)NCc2cc(-c3ccc(C(F)(F)F)cc3)nc(N3CCN(CC4CC4)CC3)c2)CC1)S(=O)(=O)c1ccc(F)cc1` [Example 64, N-[[2-[4-(cyclopropylmethyl)piperazin-1-yl]-6-[4-(trifluoromethyl)phenyl]-4-pyridyl]methyl]-1-[ethyl-(4-fluorophenyl)sulfonyl-amino]cyclopropanecarboxamide] had an inhibition at 10 µM in test [2] of 99%. The compound further returned an IC50 in test [2] (setting [6]) of 0.338 µM.
The corresponding values for `CCN(C1(C(=O)NCc2cc(-c3ccc(C(F)(F)F)cc3)nc(N3CCN(CC4CC4)CC3)c2)CC1)S(=O)(=O)c1ccc(Cl)s1` [Example 65, 1-[(5-chloro-2-thienyl)sulfonyl-ethyl-amino]-N-[[2-[4-(cyclopropylmethyl)piperazin-1-yl]-6-[4-(trifluoromethyl)phenyl]-4-pyridyl]methyl]cyclopropanecarboxamide] are 100% and 0.327 µM.
`CCN(C1(C(=O)NCc2cc(-c3ccc(C(F)(F)F)cc3)nc(N3CCN(C4CCCCC4)CC3)c2)CC1)S(=O)(=O)c1ccc(F)cc1` [Example 66, N-[[2-(4-cyclohexylpiperazin-1-yl)-6-[4-(trifluoromethyl)phenyl]-4-pyridyl]methyl]-1-[ethyl-(4-fluorophenyl)sulfonyl-amino]cyclopropanecarboxamide] showed an inhibition at 10 µM in test [2] of 93%. This compound also registered an IC50 in test [2] (against PF-4840154 (1 μM), A549 cells, cells printed in μM) of 1.5 µM.
In test [2], `CCN(C1(C(=O)NCc2cc(-c3ccc(C(F)(F)F)cc3)nc(N3CCN(C4CCCCC4)CC3)c2)CC1)S(=O)(=O)c1ccc(Cl)s1` [Example 67, 1-[(5-chloro-2-thienyl)sulfonyl-ethyl-amino]-N-[[2-(4-cyclohexylpiperazin-1-yl)-6-[4-(trifluoromethyl)phenyl]-4-pyridyl]methyl]cyclopropanecarboxamide] had an inhibition at 10 µM of 95%. In test [2] (setting [6]), this compound yielded a half-maximal inhibitory concentration (IC50) of 0.59 µM.
Consider `CC(C)CNc1nc(N2CCN(CC3CCCOC3)CC2)ncc1C(=O)NCc1ccccc1` (stereo not drawn) [PF-4840154, reference compound], for which the “cultured cells with increased [Ca2+]” value in test [2] (PF-4840154 1 μM, A549 cells) is recorded as 95%.
